In patent publication US20090208573A1, “NOVEL POLYMORPH FORM OF IRBESARTAN” (LEK PHARMACEUTICALS D.D, priority 2004, published 2009):
Like-named read-outs stand apart in the source and are kept apart here.

How the values were obtained:
[1] = 15% relative humidity and 23° C.
Method: A method of measuring electrostatic nature is a tribogeneration where relative charge on the powdered sample is measured with an electrometer equipped with a Faraday cup (NanoCoulumb Meter, Model 284, Monroe Electronics, USA). Prior to measurement, the charge is generated by strongly vibrating the sample (approximately 3 g) on a dry Petri dish (D=24 cm) for 2 minutes. The charged sample is then transferred to a Faraday cup of the electrometer with a plastic spoon and its charge is measured by an electrometer. After the charge measurement the sample is weighted and the relative charge calculated. All measurements are performed at controlled dry atmosphere conditions (15% relative humidity and 23° C.).

[2] = SEM image, N=200 crystals
Method: The shape of crystals is determined by an analysis of an image, taken by the scanning electron microscope (SEM), JEOL JXA840A at magnification 500-2000×. The length/width ratio of the crystal habit is determined by measuring length and width of a representative sample (N=200) of crystals on the image, using the image analyzing software Olympus DP-Soft, v-3.2. The length/width ratio is calculated independently for each crystal. Finally, the number average of the ratio is determined and optionally histogram calculated.

| Compound | chargeab. (chargeability by tribogeneration) [1] | chargeab. (chargeability by tribogeneration) ([1]; listed as 3913D) | a (length of crystals) [2] [μm] | a:b (length/width ratio, number average) [2] | b (width of crystals) [2] [μm] | chargeab. (chargeability by tribogeneration) ([1]; listed as 1649) |
| --- | --- | --- | --- | --- | --- | --- |
| CCCCC1=NC2(CCCC2)C(=O)N1Cc1ccc(-c2ccccc2-c2nnn[nH]2)cc1 [Example 3, 2-n-butyl-4-spirocyclopentane-1-[((2′-tetrazol-5-yl)biphenyl-4-yl)methyl]-2-imidazolin-5-one] | −45.8 ± 4.9 10^−9 As/g | 45.8±4.9 10^−9 As/g | 20.7 ± 17.4 | 23.3 ± 23 | 1.0 ± 0.5 |  |
| CCCCC1=NC2(CCCC2)C(=O)N1Cc1ccc(-c2ccccc2-c2nnn[nH]2)cc1 [Example 5, 2-n-butyl-4-spirocyclopentane-1-[((2′-tetrazol-5-yl)biphenyl-4-yl)methyl]-2-imidazolin-5-one] | −17.1 ± 2.9 10^−9 As/g |  | 58 ± 50 | 9.5 ± 8 | 6.4 ± 1.2 |  |
| CCCCC1=NC2(CCCC2)C(=O)N1Cc1ccc(-c2ccccc2-c2nnn[nH]2)cc1 [Example 6, 2-n-butyl-4-spirocyclopentane-1-[((2′-tetrazol-5-yl)biphenyl-4-yl)methyl]-2-imidazolin-5-one] | −27.9 ± 2.8 10^−9 As/g |  | 32 ± 32 | 22 ± 18 | 1.4 ± 0.6 |  |
| CCCCC1=NC2(CCCC2)C(=O)N1Cc1ccc(-c2ccccc2-c2nnn[nH]2)cc1 [Example 4, 2-n-butyl-4-spirocyclopentane-1-[((2′-tetrazol-5-yl)biphenyl-4-yl)methyl]-2-imidazolin-5-one] | −27.5 ± 5.6 10^−9 As/g |  | 130 ± 96 | 17 ± 12.9 | 7.9 ± 3.4 |  |
| CCCCC1=NC2(CCCC2)C(=O)N1Cc1ccc(-c2ccccc2-c2nnn[nH]2)cc1 [Example 1, 2-n-butyl-4-spirocyclopentane-1-[((2′-tetrazol-5-yl)biphenyl-4-yl)methyl]-2-imidazolin-5-one] | −33.7 ± 15 10^−9 As/g |  | 14.9 ± 10.1 | 13 ± 10 | 1.2 ± 1.4 |  |
| CCCCC1=NC2(CCCC2)C(=O)N1Cc1ccc(-c2ccccc2-c2nnn[nH]2)cc1 [Example 2, 2-n-butyl-4-spirocyclopentane-1-[((2′-tetrazol-5-yl)biphenyl-4-yl)methyl]-2-imidazolin-5-one] | −32 ± 4.6 10^−9 As/g |  | 78 ± 68 | 13.4 ± 1.9 | 6.7 ± 2.8 |  |
| CCCCC1=NC2(CCCC2)C(=O)N1Cc1ccc(-c2ccccc2-c2nnn[nH]2)cc1 [Example 7, 2-n-butyl-4-spirocyclopentane-1-[((2′-tetrazol-5-yl)biphenyl-4-yl)methyl]-2-imidazolin-5-one] | −26.5 ± 6 10^−9 As/g |  | 21 ± 17 | 13 ± 9 | 2.6 ± 1.0 | −26.5±6 10^−9 As/g |
